Results taken from EP2108954A1, “A test system for detecting intracellular cyclic nucleotide level and methods and uses thereof” (Max-Planck-Gesellschaft zur Förderung der Wissenschaften …, priority 2008, dated 2009).

Biological target: T1, Or22a and Or83b (Drosophila melanogaster, UniProt P81909+Q9VNB5)
T1 construct: expressed in transfected cells; host or cells: HEK293
T1 sequence (P81909 1-397): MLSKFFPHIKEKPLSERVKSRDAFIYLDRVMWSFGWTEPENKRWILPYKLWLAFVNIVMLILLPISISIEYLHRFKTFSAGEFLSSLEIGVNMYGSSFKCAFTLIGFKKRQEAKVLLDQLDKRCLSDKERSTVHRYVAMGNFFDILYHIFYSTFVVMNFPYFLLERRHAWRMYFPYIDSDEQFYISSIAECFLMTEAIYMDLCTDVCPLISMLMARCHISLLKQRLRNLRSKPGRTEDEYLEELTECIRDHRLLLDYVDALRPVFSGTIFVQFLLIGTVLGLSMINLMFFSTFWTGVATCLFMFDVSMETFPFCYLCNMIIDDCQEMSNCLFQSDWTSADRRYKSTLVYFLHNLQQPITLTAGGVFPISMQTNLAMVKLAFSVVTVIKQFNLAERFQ
T1 sequence (Q9VNB5 1-486): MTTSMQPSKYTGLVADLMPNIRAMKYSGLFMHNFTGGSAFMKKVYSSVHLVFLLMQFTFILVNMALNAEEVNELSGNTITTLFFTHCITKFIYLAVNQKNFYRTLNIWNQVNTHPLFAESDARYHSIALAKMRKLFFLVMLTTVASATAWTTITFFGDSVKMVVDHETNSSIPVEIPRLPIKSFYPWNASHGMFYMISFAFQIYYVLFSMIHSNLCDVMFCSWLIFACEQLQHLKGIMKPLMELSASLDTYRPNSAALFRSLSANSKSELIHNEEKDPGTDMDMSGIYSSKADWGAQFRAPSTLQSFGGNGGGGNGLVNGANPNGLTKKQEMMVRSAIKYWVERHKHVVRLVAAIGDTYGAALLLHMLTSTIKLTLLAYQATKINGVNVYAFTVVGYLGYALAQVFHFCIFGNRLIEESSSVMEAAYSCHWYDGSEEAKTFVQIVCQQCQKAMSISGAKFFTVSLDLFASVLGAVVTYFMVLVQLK
Experiment: Calcium imaging (fura-2) in HEK293 cells coexpressing Or22a and Or83b
Format: cell-based
Conditions: dependent on Etb concentration and on extracellular Ca^2+
Protocol: Free intracellular Ca^2+ concentration ([Ca^2+]i) was determined by fura-2 fluorescence as described (Messutat et al., Cell Calcium 30, 199-211. (2001)). In brief, cells were loaded with fura-2 by incubation in bath solution containing 2 µM fura-2/acetomethylester for 20 min. Free intracellular Ca^2+ concentration ([Ca^2+]i) was determined with the fluorescence ratio method. Excitation of fura-2 at 340 and 380 nm was performed with a monochromator (Polychrome II, T.I.L.L. Photonics, Gräfelfing, Germany) coupled via an epifluorescence condenser into an Axioskop FS microscope (Carl Zeiss, Jena, Germany) with a water immersion objective (LUMPFL 40xW/IR/0.8; Olympus, Hamburg, Germany). […] [Ca^2+]i was calculated according to the equation [Ca^(2 +)]i = Keff (R-Rmin)/(Rmax-R). […] Keff, Rmin, and Rmax were determined using HEK293 cells permeabilized with 2 µM ionomycin and three solutions with different concentrations of free Ca^2+ (Ca^2+ free; 5 mM Ca^2+; 500 nM Ca^2+; the composition of the 500 nM solution was calculated with WEBMAXC v.2.20) (Patton et al., Cell Calcium 35, 427-31 (2004)). […]
Fluorescence images were acquired using a cooled CCD camera controlled by TILLVision 4.0 software (T.I.L.L. Photonics). […] Image pairs were obtained by excitation for 100 ms at 340 nm and 380 nm; background fluorescence was subtracted.

With `CCCC(=O)OCC` [Etb, ethyl butyrate] the “intracellular Ca^2+ concentration ([Ca^2+]i)” value was “increased intracellular Ca^2+ concentration”.
